Legend:
Test in all cases: KINOMEscan competition binding
ERK3 = ERK3 (Homo sapiens, UniProt Q16659); conditions: read-out: %Inh ERK3
DRAK2 = molecular target: T1, DRAK2 (Homo sapiens, UniProt O94768); conditions: read-out: %Inh DRAK2
T1 sequence (O94768 1-372): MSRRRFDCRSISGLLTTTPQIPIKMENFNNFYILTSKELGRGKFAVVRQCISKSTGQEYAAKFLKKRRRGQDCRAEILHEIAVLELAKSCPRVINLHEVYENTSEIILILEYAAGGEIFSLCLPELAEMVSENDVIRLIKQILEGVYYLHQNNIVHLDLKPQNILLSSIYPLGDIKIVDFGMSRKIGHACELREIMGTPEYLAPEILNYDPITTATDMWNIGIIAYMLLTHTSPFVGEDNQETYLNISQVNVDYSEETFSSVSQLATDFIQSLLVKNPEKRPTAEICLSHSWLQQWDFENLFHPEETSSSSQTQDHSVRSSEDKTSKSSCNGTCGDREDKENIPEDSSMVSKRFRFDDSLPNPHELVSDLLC

KIT-autoinhibited = KIT-autoinhibited (Homo sapiens, UniProt P10721); conditions: read-out: %Inh KIT-autoinhibited
Chain of KIT-autoinhibited (P10721 546-976 limits assumed): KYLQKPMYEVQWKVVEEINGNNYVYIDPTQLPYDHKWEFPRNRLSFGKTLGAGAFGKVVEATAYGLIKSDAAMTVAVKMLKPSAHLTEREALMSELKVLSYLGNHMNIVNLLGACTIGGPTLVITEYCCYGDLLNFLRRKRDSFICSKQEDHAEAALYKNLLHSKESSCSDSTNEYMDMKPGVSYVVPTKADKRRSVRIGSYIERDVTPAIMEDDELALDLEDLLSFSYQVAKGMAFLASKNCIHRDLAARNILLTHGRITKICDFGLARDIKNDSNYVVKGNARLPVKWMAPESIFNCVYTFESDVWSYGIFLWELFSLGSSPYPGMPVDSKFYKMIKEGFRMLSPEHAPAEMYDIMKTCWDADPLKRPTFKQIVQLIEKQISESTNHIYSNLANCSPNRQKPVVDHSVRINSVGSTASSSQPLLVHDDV

EPHB2 = molecular target: T2, EPHB2 (Homo sapiens, UniProt P29323); conditions: read-out: %Inh EPHB2
T2 sequence (P29323 19-1055): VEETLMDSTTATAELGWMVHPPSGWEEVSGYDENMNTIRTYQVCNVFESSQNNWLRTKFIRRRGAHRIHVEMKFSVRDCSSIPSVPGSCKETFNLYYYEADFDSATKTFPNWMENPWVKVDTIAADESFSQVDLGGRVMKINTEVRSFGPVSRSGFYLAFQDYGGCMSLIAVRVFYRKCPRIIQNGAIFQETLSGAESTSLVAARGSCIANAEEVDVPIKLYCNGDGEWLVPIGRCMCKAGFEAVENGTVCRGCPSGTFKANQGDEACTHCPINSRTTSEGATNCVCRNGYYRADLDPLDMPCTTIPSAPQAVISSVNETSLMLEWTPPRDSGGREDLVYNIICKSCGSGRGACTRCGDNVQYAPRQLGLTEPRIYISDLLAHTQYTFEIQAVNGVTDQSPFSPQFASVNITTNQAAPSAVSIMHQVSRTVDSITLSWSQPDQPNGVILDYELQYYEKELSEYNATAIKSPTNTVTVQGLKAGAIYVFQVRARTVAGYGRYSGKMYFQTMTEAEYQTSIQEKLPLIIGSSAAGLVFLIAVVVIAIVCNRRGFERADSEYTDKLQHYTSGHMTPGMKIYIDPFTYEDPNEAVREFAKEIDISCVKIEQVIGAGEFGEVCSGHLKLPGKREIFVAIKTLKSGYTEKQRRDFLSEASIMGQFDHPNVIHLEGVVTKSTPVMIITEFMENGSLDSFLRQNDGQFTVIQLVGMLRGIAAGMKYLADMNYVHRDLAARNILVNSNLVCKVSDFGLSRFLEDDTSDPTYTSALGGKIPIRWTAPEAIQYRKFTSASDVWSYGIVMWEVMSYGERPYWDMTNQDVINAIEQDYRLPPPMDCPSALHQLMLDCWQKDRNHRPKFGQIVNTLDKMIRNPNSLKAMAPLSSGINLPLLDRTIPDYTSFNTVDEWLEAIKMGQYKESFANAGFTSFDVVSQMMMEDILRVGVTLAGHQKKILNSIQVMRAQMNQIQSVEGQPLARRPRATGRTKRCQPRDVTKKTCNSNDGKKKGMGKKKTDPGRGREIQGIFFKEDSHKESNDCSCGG

LATS2 = molecular target: T3, LATS2 (Homo sapiens, UniProt Q9NRM7); conditions: read-out: %Inh LATS2
T3 sequence (Q9NRM7 1-1088): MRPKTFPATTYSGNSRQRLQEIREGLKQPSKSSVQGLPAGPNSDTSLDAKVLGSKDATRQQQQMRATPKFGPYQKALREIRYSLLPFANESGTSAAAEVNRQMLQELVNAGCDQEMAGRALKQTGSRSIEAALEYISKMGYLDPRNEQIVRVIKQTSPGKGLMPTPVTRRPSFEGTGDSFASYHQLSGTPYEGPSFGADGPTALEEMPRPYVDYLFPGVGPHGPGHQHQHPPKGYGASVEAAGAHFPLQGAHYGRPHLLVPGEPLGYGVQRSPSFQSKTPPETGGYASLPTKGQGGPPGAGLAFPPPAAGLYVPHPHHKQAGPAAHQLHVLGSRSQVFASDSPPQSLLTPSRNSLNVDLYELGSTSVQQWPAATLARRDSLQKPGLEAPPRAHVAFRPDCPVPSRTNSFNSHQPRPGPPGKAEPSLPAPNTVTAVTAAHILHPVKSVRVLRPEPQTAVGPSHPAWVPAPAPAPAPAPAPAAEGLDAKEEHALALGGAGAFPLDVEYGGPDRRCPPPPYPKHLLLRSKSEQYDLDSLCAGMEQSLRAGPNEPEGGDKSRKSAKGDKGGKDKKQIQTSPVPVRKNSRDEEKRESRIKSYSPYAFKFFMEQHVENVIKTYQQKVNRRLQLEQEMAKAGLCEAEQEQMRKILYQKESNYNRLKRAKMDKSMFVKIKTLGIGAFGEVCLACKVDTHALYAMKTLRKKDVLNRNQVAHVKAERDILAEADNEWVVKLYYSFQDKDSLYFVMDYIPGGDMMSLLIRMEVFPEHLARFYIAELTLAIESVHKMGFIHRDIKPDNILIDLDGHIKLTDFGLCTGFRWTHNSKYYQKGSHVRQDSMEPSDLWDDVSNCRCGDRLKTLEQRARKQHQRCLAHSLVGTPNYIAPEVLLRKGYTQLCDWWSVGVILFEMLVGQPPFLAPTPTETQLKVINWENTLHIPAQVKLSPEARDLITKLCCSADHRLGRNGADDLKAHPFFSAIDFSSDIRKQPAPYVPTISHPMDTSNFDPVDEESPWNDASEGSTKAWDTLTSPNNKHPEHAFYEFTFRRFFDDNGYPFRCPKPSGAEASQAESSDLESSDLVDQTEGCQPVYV

Chain of ERK3 (Q16659 whole entry): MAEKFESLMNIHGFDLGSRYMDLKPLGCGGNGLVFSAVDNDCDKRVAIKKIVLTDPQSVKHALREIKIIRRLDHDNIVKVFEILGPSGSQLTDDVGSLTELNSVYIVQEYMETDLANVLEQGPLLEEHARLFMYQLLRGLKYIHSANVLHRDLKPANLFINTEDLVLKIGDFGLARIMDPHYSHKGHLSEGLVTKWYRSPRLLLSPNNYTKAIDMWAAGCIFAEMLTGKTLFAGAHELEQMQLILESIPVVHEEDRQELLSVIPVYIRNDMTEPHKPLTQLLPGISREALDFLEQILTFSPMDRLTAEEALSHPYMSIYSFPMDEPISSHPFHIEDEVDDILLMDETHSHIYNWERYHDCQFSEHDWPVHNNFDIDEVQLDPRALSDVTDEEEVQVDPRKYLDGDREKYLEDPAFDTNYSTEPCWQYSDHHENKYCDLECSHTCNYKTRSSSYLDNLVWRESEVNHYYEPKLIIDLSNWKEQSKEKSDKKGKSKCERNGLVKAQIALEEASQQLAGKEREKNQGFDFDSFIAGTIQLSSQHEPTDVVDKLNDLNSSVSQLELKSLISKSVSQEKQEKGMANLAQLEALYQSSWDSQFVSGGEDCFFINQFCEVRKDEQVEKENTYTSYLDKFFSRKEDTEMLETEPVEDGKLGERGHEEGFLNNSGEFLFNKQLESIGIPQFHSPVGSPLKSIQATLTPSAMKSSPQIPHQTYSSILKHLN

SMILES | inhibition at 1 µM (ERK3) [%] | inhibition at 1 µM (DRAK2) [%] | inhibition at 1 µM (KIT-autoinhibited) [%] | inhibition at 1 µM (EPHB2) [%] | inhibition at 1 µM (LATS2) [%]
Cn1cc(-c2cnc(N)c3c(-c4ccc5c(c4)CCN5C(=O)Cc4ccccc4)csc23)cn1 [UNC10225012A] | 0 | 9 | 32 | 2 | 23
O=c1cc(N2CCOCC2)nc2n(Cc3cccc(Cl)c3Cl)c(C3CC3)nn12 [UNC10225469A] | 0 | 9 | 15 | 0 | 27
COc1cccc(OC)c1C(=O)Nc1cccc(-c2nn3ccccc3c2-c2ccnc(Nc3cccc(F)c3)n2)c1 [UNC10225310A] | 1 | 12 | 11 | 0 | 10
CS(=O)(=O)Cc1ccc(Nc2nccc(-c3c(-c4cccc(NC(=O)C5CCCCC5)c4)nn4ncccc34)n2)cc1 [UNC10225159A] | 0 | 0 | 14 | 3 | 48
Cc1ccc(NC(=O)Nc2cccc(C(F)(F)F)c2)cc1 [UNC10225187A] | 0 | 0 | 3 | 3 | 20
